Experimental findings from patent US7674825B2, “Dicarboxylic acid derivatives with pharmaceutical properties” (Bayer Aktiengesellschaft, priority 2002, dated 2010) are described below.

As a reminder, the pIC50 is the negative decadic logarithm of the IC50, by convention in mol/L. Read a low pIC50 as a high IC50.

pIC50: −log10 of the molar value.

One assay relates to arteria saphena. As to the kind of experiment: Vasorelaxant action in vitro (phenylephrine-contracted arteria saphena rings). Format: cell-based, Rabbits. The settings on record: Oryctolagus cuniculus; rabbit arteria saphena rings, contraction induced by phenylephrine; concentration reducing contraction to 50%. The protocol: Rabbits are anesthetized by intravenous injection of thiopental sodium […] (about 50 mg/kg) and exsanguinated. The arteria saphena is removed and divided into 3 mm wide rings. The rings are individually mounted on in each case one triangular pair of hooks, open at the end, made of 0.3 mm strong special wire (Remanium®). Under a pretension, each ring is transferred into 5 ml organ baths containing a warm, carbogen-aerated Krebs-Henseleit solution at 37° C. having the following composition (mM): NaCl: 119; KCl: 4.8; CaCl2×2 H2O: 1; MgSO4×7 H2O: 1.4; KH2PO4: 1.2; NaHCO3: 25; glucose: 10; bovine serum albumin: 0.001%. The contractility is detected using Statham UC2 cells, amplified and digitalized by means of A/D converters (DAS-1802 HC, Keithley Instruments Munich), and recorded in parallel on linear recorders. Contractions are induced by addition of phenylephrine.
After several (in general 4) control cycles, the substance to be investigated is added in each further passage in increasing dosage, and the height of the contraction achieved under the influence of the test substance is compared with the height of the contraction achieved in the last preliminary passage. From this, the concentration which is necessary in order to reduce the contraction achieved in the preliminary control to 50% (IC50) is calculated. The standard administration volume is 5 μl. The proportion of DMSO in the bath solution corresponds to 0.1%.

In the next assay the target is T1, Heme-containing sGC (Rattus norvegicus, UniProt P20595).
T1 construct: made in house; host or cells: Sf9 insect cells (baculovirus)
As to the kind of experiment: Stimulation of recombinant soluble guanylate cyclase (sGC) in vitro, heme-containing enzyme. Format: biochemical. The settings on record: for Stimulation (n-fold) Heme-containing sGC Basal: n-fold stimulation of basal activity. The protocol:
(§1) The investigations on the stimulation of recombinant soluble guanylate cyclase (sGC) and the compounds according to the invention with and without sodium nitroprusside and with and without the heme-dependent sGC inhibitor 1H-1,2,4-oxadiazole-(4,3a)-quinoxalin-1-one (ODQ) were carried out by the method described in detail in the following literature reference: M. Hoenicka, E. M. Becker, H. Apeler, T. Sirichoke, H. Schroeder, R. Gerzer and J.-P. Stasch: Purified soluble guanylyl cyclase expressed in a baculovirus/Sf9 system: stimulation by YC-1, nitric oxide, and carbon oxide. J. Mol. Med. 77 (1999): 14-23.
(§2) Activation of sGC by a test substance is stated as n-fold stimulation of basal activity.

The next assay concerns the target T2, Heme-free sGC (Rattus norvegicus, UniProt P20595).
T2 construct: made in house; host or cells: Sf9 insect cells (baculovirus)
Put plainly: Stimulation of recombinant soluble guanylate cyclase (sGC) in vitro, heme-free enzyme. Format: biochemical. The note with it: heme-free (Tween 20 0.5%). The protocol:
as §1
Heme-free guanylate cyclase was obtained by adding Tween 20 to the sample buffer (final concentration 0.5%).
as §2

T2 sequence (P19686 whole entry partner): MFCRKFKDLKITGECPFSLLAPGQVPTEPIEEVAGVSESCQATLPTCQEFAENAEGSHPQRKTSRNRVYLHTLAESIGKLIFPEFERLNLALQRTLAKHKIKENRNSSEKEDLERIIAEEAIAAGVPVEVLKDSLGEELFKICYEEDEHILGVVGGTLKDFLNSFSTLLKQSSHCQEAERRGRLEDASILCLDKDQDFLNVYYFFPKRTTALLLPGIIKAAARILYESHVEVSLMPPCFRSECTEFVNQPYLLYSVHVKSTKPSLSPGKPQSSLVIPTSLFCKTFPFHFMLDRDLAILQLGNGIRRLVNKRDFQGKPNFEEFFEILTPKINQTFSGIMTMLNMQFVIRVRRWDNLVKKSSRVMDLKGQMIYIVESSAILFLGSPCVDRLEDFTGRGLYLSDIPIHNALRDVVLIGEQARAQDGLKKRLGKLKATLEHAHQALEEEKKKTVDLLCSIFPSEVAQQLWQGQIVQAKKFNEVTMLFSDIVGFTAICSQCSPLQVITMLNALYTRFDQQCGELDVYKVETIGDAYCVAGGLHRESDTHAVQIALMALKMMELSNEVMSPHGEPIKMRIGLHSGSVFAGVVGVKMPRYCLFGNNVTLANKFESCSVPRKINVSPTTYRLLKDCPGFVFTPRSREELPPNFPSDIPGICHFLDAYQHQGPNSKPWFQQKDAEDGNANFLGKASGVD
T2 sequence (P20595 whole entry): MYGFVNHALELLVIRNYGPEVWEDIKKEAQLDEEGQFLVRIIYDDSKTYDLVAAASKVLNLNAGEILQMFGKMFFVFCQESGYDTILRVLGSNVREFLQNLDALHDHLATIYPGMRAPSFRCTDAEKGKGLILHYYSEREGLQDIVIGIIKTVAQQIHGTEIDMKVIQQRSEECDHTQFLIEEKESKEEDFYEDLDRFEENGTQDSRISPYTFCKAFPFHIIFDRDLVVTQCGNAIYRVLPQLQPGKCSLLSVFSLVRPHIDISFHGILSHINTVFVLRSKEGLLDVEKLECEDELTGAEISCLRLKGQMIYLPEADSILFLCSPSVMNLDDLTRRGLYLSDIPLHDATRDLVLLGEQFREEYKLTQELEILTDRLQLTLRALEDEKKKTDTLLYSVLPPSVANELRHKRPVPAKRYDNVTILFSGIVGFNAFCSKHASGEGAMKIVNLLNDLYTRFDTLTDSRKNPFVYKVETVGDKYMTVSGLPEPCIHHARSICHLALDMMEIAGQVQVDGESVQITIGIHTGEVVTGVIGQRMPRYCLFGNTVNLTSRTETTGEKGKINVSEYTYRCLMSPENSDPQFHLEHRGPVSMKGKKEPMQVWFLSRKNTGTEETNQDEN
T1 sequence (P19686 whole entry partner): as the sequence (P19686 whole entry partner) above
T1 sequence (P20595 whole entry): as the sequence (P20595 whole entry) above

As to `O=C(O)CCCCC(COCc1cccc(Oc2ccccc2F)c1)Cc1ccc(C(=O)O)cc1` (stereo not shown) [Example 132], the pIC50 in the assay with arteria saphena is 6.66.

As for `O=C(O)CCCC[C@@H](CCc1ccccc1OCc1ccc(C2CCCCC2)cc1)Cc1ccc(C(=O)O)cc1` [Example 93], the “Stimulation (n-fold) Heme-containing sGC +ODQ (10 μM)” value on Heme-containing sGC (0.1 μM test compound) is listed as 84 n-fold; on Heme-containing sGC (1.0 μM test compound), 151 n-fold; on Heme-containing sGC, 178 n-fold. Moreover, the “Stimulation (n-fold) Heme-containing sGC +SNP (0.1 μM)” value at Heme-containing sGC (0.1 μM test compound) amounted to 45 n-fold; at Heme-containing sGC (1.0 μM test compound), 44 n-fold; on Heme-containing sGC (10 μM test compound) it was 54 n-fold. Moreover, the “Stimulation (n-fold) Heme-containing sGC Basal” value amounted to 17 n-fold on Heme-containing sGC (0.1 μM test compound), 23 n-fold on Heme-containing sGC (1.0 μM test compound) and 33 n-fold on Heme-containing sGC (10 μM test compound). Moreover, the pIC50 in the assay on arteria saphena was 9.70. Moreover, the “Stimulation (n-fold) Heme-free sGC +ODQ (10 μM)” value on Heme-free sGC (0.1 μM test compound) worked out at 392 n-fold; at Heme-free sGC (1.0 μM test compound) it was 435 n-fold; on Heme-free sGC (10 μM test compound) it was 500 n-fold. Moreover, the “Stimulation (n-fold) Heme-free sGC Basal” value came to 436 n-fold at Heme-free sGC (0.1 μM test compound), 476 n-fold at Heme-free sGC (1.0 μM test compound) and 541 n-fold at Heme-free sGC (10 μM test compound).

Consider `O=C(O)CSCCC(/C=C/c1ccccc1OCCCCCc1ccccc1)Cc1ccc(C(=O)O)cc1` (stereo not shown) [Example 164], for which the negative logarithm of the IC50 (pIC50) in the assay on arteria saphena was 6.24.

Take `O=C(O)CCCCC(/C=C/c1ccccc1NCc1ccccc1)Cc1ccc(C(=O)O)cc1` (stereo not shown) [Example 30]: the negative logarithm of the IC50 (pIC50) in the assay on arteria saphena was 5.46.

The molecule `CCCCCCCCOc1ccccc1/C=C/C(CCCCC(=O)O)Cc1ccc(C(=O)O)cc1` (stereo not shown) [Example 29] showed a pIC50 in the assay with arteria saphena of 8.60.

In the assay on arteria saphena, `O=C(O)CCCCC(/C=C/c1ccccc1OCc1ccc(C2CCCCC2)cc1)Cc1ccc(C(=O)O)cc1` (stereo not shown) [Example 72] had a negative logarithm of the IC50 (pIC50) of 9.70.

Molecule `O=C(O)CCCCC(/C=C/c1ccccc1OCc1cc2ccccc2s1)Cc1ccc(C(=O)O)cc1` (stereo not shown) [Example 78] gave a pIC50 in the assay with arteria saphena of 8.24.

The molecule `O=C(O)CCCCC(/C=C/c1ccccc1OCc1ccc(-c2ccccc2)cc1)Cc1ccc(C(=O)O)cc1` (stereo not shown) [Example 26] had a pIC50 in the assay on arteria saphena of 8.72.

Molecule `O=C(O)CCCCC(/C=C/c1cccnc1OCCCCCc1ccccc1)Cc1ccc(C(=O)O)cc1` (stereo not shown) [Example 34] showed a pIC50 with arteria saphena of 6.77.

`Cc1cc(COc2ccccc2/C=C/C(CCCCC(=O)O)Cc2ccc(C(=O)O)cc2)nn1-c1cc(Cl)cc(Cl)c1` (stereo not shown) [Example 76] gave a negative-log IC50 (pIC50) in the assay with arteria saphena of 8.28.

`O=C(O)CCCCC(CNc1ccccc1OCCCCCc1ccccc1)Cc1ccc(C(=O)O)cc1` (stereo not shown) [Example 150] gave a pIC50 with arteria saphena of 7.52.

`O=C(O)CCCCC(/C=C/c1ccccc1OCCCCCN1CCCC1)Cc1ccc(C(=O)O)cc1` (stereo not shown) [Example 116] had a pIC50 with arteria saphena of 6.72.

`O=C(O)CCCCC(/C=C/c1ccccc1OCc1ccc(-c2csc(C(F)(F)F)n2)cc1)Cc1ccc(C(=O)O)cc1` (stereo not shown) [Example 81] showed a pIC50 in the assay with arteria saphena of 8.41.
